From ChEMBL document CHEMBL4680101, “Discovery and Optimization of Allosteric Inhibitors of Mutant Isocitrate Dehydrogenase 1 (R132H IDH1) Displaying Activity in Human Acute Myeloid Leukemia Cells” (J Med Chem, 2016)

What follows are compounds tested against Isocitrate dehydrogenase [NADP] cytoplasmic (Homo sapiens, UniProt O75874, R132H) (assay: Inhibition of IDH1 R132H mutant (unknown origin) using alpha-ketoglutarate and NADPH incubated for 60 mins by fluorescence based assay).
Chain of Isocitrate dehydrogenase [NADP] cytoplasmic (O75874 2-414 R132H limits assumed): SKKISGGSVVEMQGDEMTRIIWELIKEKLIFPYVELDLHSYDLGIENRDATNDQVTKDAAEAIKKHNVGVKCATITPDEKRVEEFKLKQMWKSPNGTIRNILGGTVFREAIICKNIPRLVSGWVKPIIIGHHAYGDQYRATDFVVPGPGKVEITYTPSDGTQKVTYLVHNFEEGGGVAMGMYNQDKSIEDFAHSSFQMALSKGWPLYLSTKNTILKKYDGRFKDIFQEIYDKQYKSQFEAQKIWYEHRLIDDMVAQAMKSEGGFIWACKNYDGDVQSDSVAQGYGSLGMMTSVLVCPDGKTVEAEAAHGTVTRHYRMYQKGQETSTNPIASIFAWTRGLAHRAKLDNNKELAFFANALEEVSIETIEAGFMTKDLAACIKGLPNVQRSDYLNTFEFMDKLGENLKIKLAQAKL

IC50	Structure (SMILES)
10 µM	CC(C)CCSc1nc(N2CCC[C@@H](CC(=O)O)C2)ccc1C(=O)NC1CCCCC1
26 µM	CC(C)COc1nc(N2CCC[C@@H](CC(=O)O)C2)ccc1C(=O)NC1CCCCC1
38 µM	Cc1cc(Cl)ccc1COc1nc(N2CCC[C@@H](CC(=O)O)C2)ccc1C(=O)NC1CCCCC1
> 50 µM	O=C(O)C[C@@H]1CCCN(c2ccc(C(=O)NC3CCCCC3)c(NCc3ccccc3)n2)C1
27 µM	O=C(NC1C2CC3CC1CC(O)(C3)C2)c1ccc(N2C[C@@H]3[C@H](C2)[C@H]3C(=O)O)nc1OCc1ccccc1 (some centres not stated)
4.6 µM	Cc1cccc(COc2nc(N3CCC[C@@H](CC(=O)O)C3)ccc2C(=O)NC2CCCCC2)c1
17 µM	CC(C)CCOc1nc(N2C[C@@H]3[C@H](C2)[C@H]3C(=O)O)ccc1C(=O)NCc1ccc(Cl)cc1
> 50 µM	Cc1ccccc1CNc1nc(N2CCC[C@@H](CC(=O)O)C2)ccc1C(=O)NC1CCCCC1
4.6 µM	CC(C)CCOc1nc(N2C[C@@H]3[C@H](C2)[C@H]3C(=O)O)ccc1C(=O)Nc1cccc(B(O)O)c1
7.9 µM	CC(C)CCOc1nc(N2C[C@@H]3[C@H](C2)[C@H]3C(=O)O)ccc1C(=O)NC1CCCCC1
9.9 µM	O=C(O)C[C@@H]1CCCN(c2ccc(C(=O)NC3CCCCC3)c(OCc3cccc(Cl)c3)n2)C1
12 µM	O=C(O)C[C@@H]1CCCN(c2ccc(C(=O)NC3CCCCC3)c(OC3CCCC3)n2)C1
> 50 µM	CC(C)CCOc1nc(N2C[C@@H]3[C@H](C2)[C@H]3C(=O)O)ccc1C(=O)NC1C2CC3CC(C2)CC1C3 (some centres not stated)
14 µM	CC1CC1COc1nc(N2CCC[C@@H](CC(=O)O)C2)ccc1C(=O)NC1CCCCC1 (some centres not stated)
14 µM	CCC(C)(C)Oc1nc(N2CCC[C@@H](CC(=O)O)C2)ccc1C(=O)NC1CCCCC1
7.4 µM	CC(C)CCOc1nc(N2C[C@@H]3[C@H](C2)[C@H]3C(=O)O)ccc1C(=O)N(C)Cc1ccccc1

IC50	Structure (SMILES)
16 µM	CCC(C)COc1nc(N2CCC[C@@H](CC(=O)O)C2)ccc1C(=O)NC1CCCCC1 (some centres not stated)
9.7 µM	O=C(O)C[C@@H]1CCCN(c2ccc(C(=O)NC3CCCCC3)c(OCC3CCCCC3)n2)C1
3.1 µM	CC(C)CCOc1nc(N2C[C@@H]3[C@H](C2)[C@H]3C(=O)O)ccc1C(=O)NC[C@@H](O)c1ccccc1
2.3 µM	O=C(O)C[C@@H]1CCCN(c2ccc(C(=O)NC3C4CC5CC3CC(O)(C5)C4)c(OCc3ccccc3)n2)C1 (some centres not stated)
6 µM	CC(C)CCOc1nc(N2C[C@@H]3[C@H](C2)[C@H]3C(=O)O)ccc1C(=O)Nc1cccc(C(N)=O)c1
3 µM	CC(C)CCOc1nc(N2C[C@@H]3[C@H](C2)[C@H]3C(=O)O)ccc1C(=O)NC[C@H](O)c1ccccc1
8.2 µM	CC(C)CCOc1nc(N2C[C@@H]3[C@H](C2)[C@H]3C(=O)O)ccc1C(=O)NC1CCC(O)CC1 (some centres not stated)
0.23 µM	CC(C)CCOc1nc(N2C[C@@H]3[C@H](C2)[C@H]3C(=O)O)ccc1C(=O)NC(C)C1C2CC3CC1CC(O)(C3)C2 (some centres not stated)
> 50 µM	Cc1ccccc1CSc1nc(N2CCC[C@@H](CC(=O)O)C2)ccc1C(=O)NC1CCCCC1
13.5 µM	CCOC(=O)[C@H]1[C@@H]2CN(c3ccc(C(=O)NC4C5CC6CC4CC(O)(C6)C5)c(OCCC(C)C)n3)C[C@@H]21 (some centres not stated)
> 50 µM	O=C(O)C[C@@H]1CCCN(c2ccc(C(=O)NC3CCCCC3)c(NCC3CCCCC3)n2)C1
12 µM	CC(C)CCOc1nc(N2C[C@@H]3[C@H](C2)[C@H]3C(=O)O)ccc1C(=O)N[C@H](CO)c1ccccc1
14 µM	CC(C)CCOc1nc(N2C[C@@H]3[C@H](C2)[C@H]3C(=O)O)ccc1C(=O)NC1CC2CCC1C2 (some centres not stated)
4.4 µM	CC(C)CCOc1nc(N2C[C@@H]3[C@H](C2)[C@H]3C(=O)O)ccc1C(=O)N[C@@H](C)c1ccccc1
5.4 µM	CC(C)CCOc1nc(N2C[C@@H]3[C@H](C2)[C@H]3C(=O)O)ccc1C(=O)N[C@H](C)c1ccccc1
3.9 µM	CC(C)CCOc1nc(N2C[C@@H]3[C@H](C2)[C@H]3C(=O)O)ccc1C(=O)NC1CCCCCC1
